In patent US7396946B2, “Compound for treatment of external secretion disorders” (Sucampo AG, priority 1999, dated 2008):
Marks after values point to notes of the source that are not given here.

Columns and labels:
[1] = system: rats (Crj:CD strain); test: Exaltation of salivation, saliva evaluated visually (Test Example 3); type: in vivo, Male and female rats (Crj:CD strain); details: 1 mg/kg orally once a day, 16 animals per group
Protocol: The effect of the composition of the present invention on salivary secretion was determined. (1) Test Animals Male and female rats (Crj:CD strain) were used. Each of the test and control groups contains 16 animals. (2) Method of Administration 13,14-dihydro-15-keto-16,16-difuloro-PGE1 was used as an active ingredient of the present invention to prepare test solution containing 0.2 mg/ml of the compound. 5 ml/kg of the solution (1 mg/kg of the compound) was forcedly administrated orally once a day. For the animals of control group, 5 ml/kg of the vehicle without the active ingredient was administrated once a day. The administration was continued for four weeks. (3) Examination The amount of the saliva of the test group and control group was evaluated visually everyday.

[2] = system: Rabbit Dry-eye Syndrome Model, which was Induced by Trigeminal Denervation; test: Basal tear secretion in rabbit dry-eye syndrome model induced by trigeminal denervation (Test Example 2); type: in vivo, male Japanese albino rabbits (Std:JW/CSK); details: for basal tear secretion: 5 eyes
Protocol: (§1) Fifteen male Japanese albino rabbits (Std:JW/CSK) were used.
(§2) (2) Generating Rabbit Dry-eye Syndrome Model by Trigeminal Denervation.
(§3) Urethane (ALDRICH) was administered i.p. at the dose of 1 g/kg to the rabbits of which occipital hair had been shaved.
(§4) After disinfecting of the shaved area, midline incision of the skin was made from the frontal bone to the ear root, and the muscular tissue around the periosteum, temporal bone and manidibular articular process were detached. After the detachment, a hole of 2×1.5 cm in size was made in the bone from the parietal medial region to the temporal region by means of the bone drill (URAWA KOGYO Co., Ltd. MINITOR C-130) under the surgical microscope (KONAN CAMERA R&I Inc., PMO-50). Then, the dura was detached from the cranial bone while cotton bud was kept inserted between the temporal bone and the dura. After the detachment was made up to the cranial base, detachment was further made toward the medial border of the petrous part of temporal bone in the carnial cavity, to find the trigeminal nerve in the petrous part. Then, the dura of about 1 to 2 mm on the nasal side of the semilunar ganglion was incised. After the incision, the two branches of nerve fascicle, i.e. the first branch (ocular nerve) of the trigeminal nerve and the second branch (maxillary nerve) were pulled laterally and cut with corneoscleral scissors. Immediately after the operation, miosis of the ipsilateral eye was confirmed and then the cotton kept inserted was removed, and the skin at the head was closed with suture. After the operation, an antibiotic (MYCILLIN SQL® Meiji) was administered i.m. at the dose of 0.1 ml/kg.
(§5) The trigeminal denervation was made only on the left eye side, while on the right eye side, no trigeminal denervation nor sham operation was made.
(§6) (3) Method of Administration.
(§7) 13,14-dihydro-15-keto-16,16-difluoro-PGE1 was used as an active ingredient of the present invention to prepare test eyedrops containing 0.0001% and 0.001% of the compound. As a control, the vehicle of the eyedrops without the active ingredient was used.
(§8) Each of the compositions was instilled to the eyes everyday at the volume of 30 μl/eye two times a day (at 10:00 and 18:00) for two weeks. Five eyes per each of the test groups and the control group were treated and then examined for the whole tear secretion, the basal tear secretion and the keratoepithelial lesion as follows.
Before the start of the instillation (week 0), and 1, 2, and 3 weeks after the start, the basal tear secretion was measured 2 hours after the 1st instillation on the day of the examination.
Keratoconjunctiva was anesthetized by instillation of 4% lidocaine (Xylocalne® 4% for ophthalmic solution; Fujisawa Pharmaceutical Co., Ltd.), the eye drops and the tear around the eyelid were wiped off about 5 minutes after and loss of keratoconjunctival esthesia was confirmed with the Cochet-Bonnet type esthesiometer. Then, one edge of the Shirmer's test strip was inserted into the conjunctival sac and kept there for 5 minutes. The length of the moistened part was read from the scale on the strip.
The basal tear secretion was expressed by mean value per minute calculated from the 4-minutes value obtained by subtracting the initial 1-minute value from the 5-minutes Sirmer's test, so that the spontaneous volume of the tear retained in the conjunctival sac might be excluded.

[3] = system: Rabbit Dry-eye Syndrome Model, which was Induced by Trigeminal Denervation; test: Keratoepithelial lesion score in rabbit dry-eye syndrome model induced by trigeminal denervation (Test Example 2); type: in vivo, male Japanese albino rabbits (Std:JW/CSK); details: for Keratoepithelial lesion: score 0-4 by stained area (Table 2), 5 eyes
Protocol: as §1, §2, §3, §4, §5, §6, §7, §8
iii) Keratoepithelial Lesion
Before the start of instillation (week 0) and 1, 2, and 3 weeks after the start, the keratoepithelial lesion was evaluated two hours after the first instillation on the day of examination.
Each animal was placed in a stainless steel fixator, and given instillation of 50 μl of the mixture of 1% rose bengal and 1% fluorescein to stain their keratoconjunctival epithelium.

[4] = system: Rabbit Dry-eye Syndrome Model, which was Induced by Trigeminal Denervation; test: Whole tear secretion (Schirmer's test) in rabbit dry-eye syndrome model induced by trigeminal denervation (Test Example 2); type: in vivo, male Japanese albino rabbits (Std:JW/CSK); details: for whole tear secretion: 5 eyes
Protocol: as §1, §2, §3, §4, §5, §6, §7, §8
i) Whole Tear Secretion (Schirmer's Test)
Before the start of the instillation (week 0), and 1, 2, and 3 weeks after the start, the whole tear secretion was measured two hours after the first instillation on the day of examination.
Under no anesthetization, one edge of the Schirmer's test strip (Showa Yakuhin Kako Co., Ltd., Lot No. 70080) was inserted into the conjunctival sac of each test animal. One minute after, the strip was removed and the length of the moistened part was read from the scale provided on the strip to determine the amount of whole tear secretion.

[5] = 0.0001% eyedrops 30 μl/eye two times a day for two weeks, week 1
[6] = 0.0001% eyedrops 30 μl/eye two times a day for two weeks, week 2
[7] = 0.0001% eyedrops 30 μl/eye two times a day for two weeks, week 3
[8] = 0.001% eyedrops 30 μl/eye two times a day for two weeks, week 1
[9] = 0.001% eyedrops 30 μl/eye two times a day for two weeks, week 2
[10] = 0.001% eyedrops 30 μl/eye two times a day for two weeks, week 3
[11] = dry-eye syndrome model animals, 0.0001% and 0.001% eyedrops
[12] = test group 0.0001% eyedrops, before administration (after operation, baseline)
[13] = test group 0.001% eyedrops, before administration (after operation, baseline)

CCCCC(F)(F)C(=O)CCC1C(O)CC(=O)C1CCCCCCC(=O)O (centres unmarked) [13,14-dihydro-15-keto-16,16-difluoro-PGE1]
rats in which exaltation of saliva was observed ([1]; 10th day after the start of the administration): 8 of 16 | rats showing salivary exaltation ([1]; subsequent to the 22nd day after the start): 16 rats | basal tear secretion [2, 5]: 1.53 ± 0.26^[+] mm/min. | basal tear secretion [2, 6]: 1.60 ± 0.11**^++ mm/min. | basal tear secretion [2, 7]: 1.48 ± 0.17^#[++] mm/min. | basal tear secretion [2, 8]: 2.00 ± 0.12*^##++ mm/min. | basal tear secretion [2, 9]: 2.00 ± 0.18*^##++ mm/min. | basal tear secretion [2, 10]: 2.00 ± 0.14*^##++ mm/min. | decreased basal tear secretion (result in words) [2, 11]: improved | basal tear secretion [2, 12]: 0.43 ± 0.06^[**^] mm/min. | basal tear secretion [2, 13]: 0.43 ± 0.08 mm/min. | Keratoepithelial lesion [3, 5]: 1.00 ± 0.27^[*^]++ score | Keratoepithelial lesion [3, 6]: 0.50 ± 0.16^[*^]++ score | Keratoepithelial lesion [3, 7]: 0.40 ± 0.19^#++ score | Keratoepithelial lesion [3, 8]: 0.70 ± 0.34^++ score | Keratoepithelial lesion [3, 9]: 0.10 ± 0.10^[++] score | Keratoepithelial lesion [3, 10]: 0.10 ± 0.10^[##][++] score | keratoconjunctival lesion accompanied by the decrease of the tear secretion (result in words) [3, 11]: improved | Keratoepithelial lesion [3, 12]: 3.00 ± 0.32^[**^] score | Keratoepithelial lesion [3, 13]: 3.00 ± 0.32^[**^] score | whole tear secretion [4, 5]: 7.10 ± 0.51**^++ mm/min. | whole tear secretion [4, 6]: 6.60 ± 0.37*^##++ mm/min. | whole tear secretion [4, 7]: 6.30 ± 0.68^++ mm/min. | whole tear secretion [4, 8]: 11.20 ± 0.51**^##++ mm/min. | whole tear secretion [4, 9]: 10.50 ± 0.57**^##++ mm/min. | whole tear secretion [4, 10]: 9.90 ± 0.81**^##++ mm/min. | decreased whole tear secretion (result in words) [4, 11]: improved | whole tear secretion [4, 12]: 3.00 ± 0.61 mm/min. | whole tear secretion [4, 13]: 3.20 ± 0.51 mm/min.
